Experimental data: patent US20050261472A1, “Binding moieties for fibrin” (Dyax Corp., priority 1999, published 2005)

What was measured:
[1] = target: T1, DD(E) (Homo sapiens, UniProt P02671+P02675+P02679); experiment: dissociation constant against fibrin-derived polypeptide DD(E); type: binding; details: read-out: Kd DD(E)
T1 construct: host or cells: purchased fibrinogen clotted with thrombin, digested with plasmin, then purified by ammonium sulfate cuts and Sephacryl S200

[2] = target: T2, fibrinogen (Homo sapiens, UniProt P02671+P02675+P02679); experiment: binding affinity by equilibrium dialysis; details: 190 μM vs. 2.7 μM
T2 sequence (P02671 20-644 isoform P02671-2 limits assumed): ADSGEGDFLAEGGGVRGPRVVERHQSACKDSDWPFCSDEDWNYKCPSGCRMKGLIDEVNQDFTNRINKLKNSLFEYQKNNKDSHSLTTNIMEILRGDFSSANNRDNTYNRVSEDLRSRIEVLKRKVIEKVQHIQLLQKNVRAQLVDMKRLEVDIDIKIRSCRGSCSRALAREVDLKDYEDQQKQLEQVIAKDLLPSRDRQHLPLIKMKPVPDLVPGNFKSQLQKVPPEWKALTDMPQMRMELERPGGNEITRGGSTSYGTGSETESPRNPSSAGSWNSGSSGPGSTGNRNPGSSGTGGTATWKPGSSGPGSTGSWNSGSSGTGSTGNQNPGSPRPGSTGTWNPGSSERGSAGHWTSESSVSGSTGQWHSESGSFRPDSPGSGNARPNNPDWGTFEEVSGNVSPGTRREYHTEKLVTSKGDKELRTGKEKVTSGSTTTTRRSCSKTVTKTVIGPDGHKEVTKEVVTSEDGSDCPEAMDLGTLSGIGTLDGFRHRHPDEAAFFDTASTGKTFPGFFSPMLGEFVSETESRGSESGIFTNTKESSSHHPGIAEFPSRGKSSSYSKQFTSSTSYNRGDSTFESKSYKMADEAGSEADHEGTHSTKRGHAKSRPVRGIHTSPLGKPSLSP
T2 sequence (P02675 31-491): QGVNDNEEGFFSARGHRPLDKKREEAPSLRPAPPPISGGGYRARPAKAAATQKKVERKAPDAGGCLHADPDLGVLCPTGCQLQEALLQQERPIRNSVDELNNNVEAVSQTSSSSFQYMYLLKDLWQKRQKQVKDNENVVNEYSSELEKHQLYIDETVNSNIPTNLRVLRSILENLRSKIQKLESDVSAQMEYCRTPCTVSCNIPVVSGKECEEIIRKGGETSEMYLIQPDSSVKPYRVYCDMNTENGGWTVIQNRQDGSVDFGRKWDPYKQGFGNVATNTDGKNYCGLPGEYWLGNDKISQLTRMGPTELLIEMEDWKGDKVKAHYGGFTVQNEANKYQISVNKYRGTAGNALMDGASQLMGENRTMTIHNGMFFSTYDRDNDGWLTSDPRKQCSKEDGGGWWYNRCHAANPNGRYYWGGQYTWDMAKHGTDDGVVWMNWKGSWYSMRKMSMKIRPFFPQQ
T2 sequence (P02679 27-437 isoform P02679-2 limits assumed): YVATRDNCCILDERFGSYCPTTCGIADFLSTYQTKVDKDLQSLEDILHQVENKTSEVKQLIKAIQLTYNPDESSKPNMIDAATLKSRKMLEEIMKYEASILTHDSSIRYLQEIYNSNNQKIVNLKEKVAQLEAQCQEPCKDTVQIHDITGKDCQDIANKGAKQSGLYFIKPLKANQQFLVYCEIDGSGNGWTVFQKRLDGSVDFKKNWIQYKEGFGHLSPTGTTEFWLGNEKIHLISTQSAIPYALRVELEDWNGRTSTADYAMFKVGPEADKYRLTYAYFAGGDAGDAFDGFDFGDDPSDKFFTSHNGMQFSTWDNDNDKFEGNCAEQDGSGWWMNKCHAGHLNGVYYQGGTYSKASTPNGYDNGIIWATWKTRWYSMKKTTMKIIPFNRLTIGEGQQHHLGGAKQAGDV
Description: A solution of fibrinogen (10 mg/ml) was mixed with the MR labeled peptide of Example 11 designated Gd-DTPA-Pep1, at concentrations of 10, 50 and 100 μM. The fibrinogen/peptide solution was placed on one side of a dialysis membrane in an equilibrium dialysis apparatus. The solution was allowed to equilibrate with an equal volume of buffer on the opposite side of the membrane.

Kd [1]: 2900 nM
specificity for fibrin over fibrinogen [2]: roughly 70 fold
SMILES: CC(C)C[C@H](NC(=O)[C@@H]1CSSC[C@H](NC(=O)[C@@H]2CCCN2C(=O)[C@H](CC(C)C)NC(=O)C[C@@H](C(=O)O)N(CCN(CC(=O)O)CC(=O)O)CCN(CC(=O)O)CC(=O)O)C(=O)N[C@@H](CC(=O)O)C(=O)N[C@@H](Cc2ccc(O)cc2)C(=O)N[C@@H](Cc2ccc(O)cc2)C(=O)NCC(=O)N[C@@H]([C@@H](C)O)C(=O)N1)C(=O)N[C@@H](CC(=O)O)C(N)=O [Gd-DTPA-Pep1]
